Source: publication PMC11732138, “Gold complex compounds that inhibit drug-resistant Staphylococcus aureus by targeting thioredoxin reductase” (Frontiers in Antibiotics, 2023)
Read-outs that look alike come from different tables or passages of the source.

How the values were obtained:
S. aureus TrxR = S. aureus TrxR (Staphylococcus aureus, UniProt P66011); test: TrxR (TrxB) enzymatic assay, DTNB to TNB conversion
Description: TrxR specific inhibitory activity was evaluated using 40 μL of S. aureus TrxR enzyme (0.5 μg/μL) per 200 mL of the reaction mixture for 15 minutes, comparing auranofin to other sulfur-containing compounds (all tested at 10 μg/mL), including known anti-S. aureus compounds.
For the screening assay, diluted TrxR assay buffer (Cayman Chemical, Ann Arbor, MI) (100 μL) was mixed with the investigational compounds (20 μL) in a 96 well-plate format and combined with Sa-TrxB (40 μL; 0.5 μg/mL), DTNB (20 μL) and NADPH (20 μL). The reaction entailed combining NADPH and Sa-TrxB with DTNB, which was converted to TNB, producing a yellow color.

mature S. aureus biofilm = test: Disruption of mature biofilm; assay type: cell-based, Staphylococcus aureus; details: preformed 24 h biofilm, Alamar Blue
Description: (§1) Diluted bacterial cells were added to 100 μL of test compounds (serially diluted 16 to 0 μg/mL) and incubated for 24 h to assess the biofilm formation inhibition. For the disruption of matured biofilm, diluted cells in 100 μL were added to the 96-well plate and incubated for 24 h with no agitation. […] Biofilm assays were completed in triplicate.

[1] = parameters: method as in Kean et al., 1997; details: auranofin-treated patients ref Kean et al., 1997; cited from earlier work
[2] = system: S. aureus MW2 biofilm formation; test: Biofilm formation inhibition; assay type: cell-based, Staphylococcus aureus; details: 24 h, Alamar Blue
Description: as §1

[3] = system: human primary hepatocytes; test: Human primary hepatocytes toxicity; assay type: cell-based; details: 24 h, WST1
Description: Human primary hepatocytes toxicity. Cryopreserved human primary hepatocytes were purchased from the Cell Resource Core at Massachusetts General Hospital (Boston, MA, USA). Collagen sandwiched configuration was used to culture the thawed cells in 24-well plates. The 24-well plates were coated with rat tail collagen type I (Cell Recourse Core, MGH) and incubated for an hour before 4 x 10^5 live cells were plated and incubated at 37°C with 5% CO2 for 1 h to allow cells to attach to the collagen gel. After incubation, the medium was removed along with dead cells, and the remaining cells received 0.5 mL of hepatocyte culture medium containing Dulbecco’s modified Eagle’s medium (DMEM) media supplemented with 10% FBS, 0.5 U/mL insulin, 14 ng/mL glucagon, 20 ng/mL EGF, 7.5 µg/mL hydrocortisone and 200 U/mL penicillin-streptomycin. The cell cultures were incubated in a humidified, 5% CO2 incubator at 37°C. After 24 h, a top layer of collagen gel was poured over the hepatocytes attached to collagen on the bottom of the plate, making a sandwich model. After 1 h, investigational compounds at the designated concentrations were added and incubated for 24 h. Post incubation, hepatocyte WST1 (Roche, Basel, Switzerland) was added and incubated for 4 h. Cell staining was measured by recording the absorbance at 420 nm, measured using a Vmax microplate reader (Molecular Devices, San Jose, CA, USA.), and data were plotted using GraphPad Prism. Cells were tested in triplicate.

E. faecium ATCC E007 = test: Broth microdilution MIC, E. faecium; assay type: cell-based, Enterococcus faecium; details: E. faecium ATCC E007
Description: (§2) In vitro antibiotic susceptibilities were determined using the broth microdilution assay established by the Clinical and Laboratory Standards Institute ([Clinical and Laboratory Standards Institute, 2012]). Broth microdilution assays were carried out with 2 biological replicates, each in triplicate, Mueller–Hinton broth (MHB; BD Biosciences, Franklin Lakes, NJ, USA) with a total assay volume of 100 μL in 96-well plates (BD Biosciences, Franklin Lakes, NJ, USA). Two-fold serial dilutions of compounds were prepared at a range of 0.01– 64 μg/mL in 50 μL of MHB. The initial bacterial inoculum was adjusted to OD600 0.06, 50 μL was, added to the test compounds, and then incubated at 35°C for 18 h. Post incubation, OD600 was measured using a Vmax microplate reader (Molecular Devices, San Jose, CA), and the lowest concentration of test compound that suppressed bacterial growth was reported as the MIC. Broth culture from the MIC assay (10 μL) was plated on Mueller–Hinton agar (BD Biosciences, Franklin Lakes, NJ, USA), and colony-forming units (CFUs) were enumerated after overnight incubation at 37°C.

P. aeruginosa PA14 = test: Broth microdilution MIC, P. aeruginosa; assay type: cell-based, Pseudomonas aeruginosa; details: P. aeruginosa PA14
Description: as §2

S. aureus MW2 [4] = test: Broth microdilution MIC, S. aureus MW2; assay type: cell-based, Staphylococcus aureus; details: S. aureus MW2 (MRSA), broth microdilution, 18 h
Description: as §2

[5] = system: intracellular free thiols of S. aureus MW2; test: Thiol depletion assay; assay type: cell-based, Staphylococcus aureus; details: treated vs untreated cell lysate
Description: S. aureus MW2 was treated for 15 min with the indicated (0.125, 0.25, 0.5, or 0.75 µg/mL) concentrations of auranofin, AU1, AU5, or ampicillin. After treatment bacteria were washed twice in PBS and then resuspended in 100 mM potassium phosphate, monobasic, pH 7.4, containing 1 mM ethylenediaminetetraacetic acid to promote lysis. Cells were incubated in the lysis solution for 30 min at 60°C and then vortexed briefly. The solution was centrifuged at 13,000 g for 10 min to collect cell debris. Lysate was collected and 50 μL was transferred to a 96-well plate. Thiols were quantified using the Fluorometric Thiol assay kit following the manufacturer’s instructions (Millipore Sigma, St. Louis, MO, USA). The fluorescence intensity was measured after a 30 min incubation time at λex = 490/λem = 535 nm using a Vmax plate reader.

[6] = system: renal proximal tubule epithelial cells; test: Renal proximal tubule epithelial cell toxicity; assay type: cell-based, human; details: renal proximal tubule epithelial cells
K. pneumoniae ATCC 77326 = test: Broth microdilution MIC, K. pneumoniae; assay type: cell-based, Klebsiella pneumonia; details: K. pneumoniae ATCC 77326
Description: as §2

H. pylori 49503 = test: Broth microdilution MIC, H. pylori; assay type: cell-based, Helicobacter pylori; details: H. pylori 49503
Description: as §2

hERG channel [7] = target: T1, hERG channel (Homo sapiens, UniProt Q12809)
T1 sequence (Q12809 whole entry): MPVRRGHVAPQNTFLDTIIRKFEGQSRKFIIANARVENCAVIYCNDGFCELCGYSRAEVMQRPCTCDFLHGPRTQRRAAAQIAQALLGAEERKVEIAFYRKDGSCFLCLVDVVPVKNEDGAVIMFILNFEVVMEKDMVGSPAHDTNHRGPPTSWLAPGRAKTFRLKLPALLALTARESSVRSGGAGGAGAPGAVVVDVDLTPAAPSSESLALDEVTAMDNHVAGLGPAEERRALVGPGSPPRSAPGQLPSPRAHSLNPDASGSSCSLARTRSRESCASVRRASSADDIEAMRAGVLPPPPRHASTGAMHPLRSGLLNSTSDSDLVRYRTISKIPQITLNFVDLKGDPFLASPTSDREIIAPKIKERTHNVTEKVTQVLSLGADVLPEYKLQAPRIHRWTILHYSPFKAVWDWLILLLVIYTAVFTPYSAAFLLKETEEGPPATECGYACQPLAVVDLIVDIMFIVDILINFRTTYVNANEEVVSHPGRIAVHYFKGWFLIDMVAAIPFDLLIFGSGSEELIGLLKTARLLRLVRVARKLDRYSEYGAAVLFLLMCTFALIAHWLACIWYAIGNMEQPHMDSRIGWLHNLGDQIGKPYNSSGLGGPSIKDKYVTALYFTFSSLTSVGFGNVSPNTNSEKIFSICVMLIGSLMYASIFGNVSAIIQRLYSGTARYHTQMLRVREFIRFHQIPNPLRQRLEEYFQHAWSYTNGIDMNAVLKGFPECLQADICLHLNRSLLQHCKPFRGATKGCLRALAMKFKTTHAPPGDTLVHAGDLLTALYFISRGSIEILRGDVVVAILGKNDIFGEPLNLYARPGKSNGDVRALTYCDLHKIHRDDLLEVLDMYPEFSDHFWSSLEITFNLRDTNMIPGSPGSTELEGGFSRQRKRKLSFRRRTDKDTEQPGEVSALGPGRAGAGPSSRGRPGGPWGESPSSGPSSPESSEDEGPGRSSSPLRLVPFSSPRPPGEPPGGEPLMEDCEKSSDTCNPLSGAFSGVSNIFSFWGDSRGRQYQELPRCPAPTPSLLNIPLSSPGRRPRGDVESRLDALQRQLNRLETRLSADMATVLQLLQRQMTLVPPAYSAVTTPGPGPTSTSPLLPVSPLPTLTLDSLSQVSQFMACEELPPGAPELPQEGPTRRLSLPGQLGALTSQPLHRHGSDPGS
Description: (§4) QPatch HTX system (Sophion Biosciences A/S, Ballerup, Denmark) was used to examine hERG signaling (Cyprotex, Watertown, MA, USA). The system was primed with appropriate extracellular (NaCl, KCl, CaCl2, MgCl2, D-glucose, HEPES, pH 7.4) and intracellular (KCl, MgCl2, EGTA, MgATP, HEPES, pH 7.2) solutions before conducting the study in a 48 well plate (QPlate, Sophion Biosciences A/S, Ballerup, Denmark). All cell suspensions, buffers, and test compound solutions were kept at room temperature during the experiment. HEK293 cells stably transfected with hERG cDNA were washed and positioned into each well (recording chamber) of the QPlate. The QPatch system follows the general principles of conventional whole-cell patch-clamping: a high resistance seal is formed between the patch electrode, and an individual cell, the membrane across the electrode tip is then ruptured, and the whole-cell patch-clamp configuration is established. The standard voltage profile was as follows: step from -80 mV to –50 mV for 200 ms, +20 mV for 4.8 s, step to -50 mV for 5 s, then stepped to the holding potential of -80 mV. The step from -80 mV to the test command (+20 mV) results in an outward current (i.e., current flows out of the cell), and the step from the test command (+20 mV) to -50 mV results in the tail current (the tail current represents deactivation of the current overtime). Compound dilutions were prepared by diluting a DMSO solution (default 10 mM), followed by dilution into an extracellular buffer such that the final concentrations tested were 0.1, 1, and 10 μM (final DMSO concentration 0.1%). Perfusion solutions contained 0.05% Pluronic F-68 and were stored at room temperature for the duration of the experiment each day. The voltage protocol was run and recorded continuously during the experiment. Cells were treated with a vehicle for 3 min (i.e., 0.1% DMSO) followed by three increasing test substance concentrations (0.1, 1, and 10 μM). The test compounds were applied in triplicate at each concentration and tested in at least 2 cells (biological replicates). […]

Enterobacter (EAE 2625) = test: Broth microdilution MIC, Enterobacter; assay type: cell-based, Enterobacter spp.; details: Enterobacter (EAE 2625)
Description: as §2

A. baumannii 17978 = test: Broth microdilution MIC, A. baumannii; assay type: cell-based, Acinetobacter baumannii; details: A. baumannii 17978
Description: as §2

S. aureus MW2 [8] = test: Diamide assay (CFU reduction); assay type: cell-based, Staphylococcus aureus; details: compound 0.5 μg/mL + 5 mM diamide, 3 h
Description: An overnight culture of S. aureus MW2 was inoculated in tryptic soy broth (TSB) media and grown with agitation. The cells were centrifuged, washed with PBS, and diluted to an OD600 0.4 (10^8 CFU/mL) in PBS. The cells were then treated with auranofin (0.5 µg/mL), AU1 (0.5 µg/mL), AU5 (0.5 µg/mL), and diamide (5 mM and 10 mM) alone or in combinations for 3 h at 37°C. The cells were then serially diluted and plated on tryptic soy agar (TSA) media and incubated at 37°C for 24 h. Colonies that grew on plates were enumerated to determine the effect of the drug and diamide on S. aureus.

[9] = Immortalized cell line toxicity (WST-1), the three cell lines together; assay type: cell-based; details: human, hkc, hepg2, a549 cells; read-out: toxicity to cell lines as multiple of the MIC
Description: (§3) A hepatic cell line (HepG2), lung carcinoma cell line (A549), and kidney cell line (HKC) were used to test the cytotoxicity of investigational compounds. Cells were grown in DMEM (ThermoFisher Scientific, Waltham, MA, USA) supplemented with 10% fetal bovine serum (FBS) (ThermoFisher Scientific, Waltham, MA, USA) and 1% penicillin/streptomycin (ThermoFisher Scientific, Waltham, MA, USA) and maintained at 37°C in 5% CO2. 2.5x10^4 cells in 100 μL of DMEM with 10% FBS were added to wells of 96-well plates 24 h prior to the experiments. Compounds were serially diluted in […], and 100 μL antibiotic-free DMEM was added to the monolayer and incubated at 37°C in 5% CO2 for 24 h. At 2 h before the end of the incubation period, 10 μL of 2-(4-iodophenyl)-3-(4-nitrophenyl)-5-(2, 4-disulfophenyl)-2H-tetrazolium (WST-1) solution (Roche, Mannheim, Germany) was added to each well. WST-1 reduction was monitored at 450 nm using a Vmax microplate reader. Assays were performed in triplicate, and the percentage survival was calculated by comparing the compound-treated wells to the DMSO vehicle control wells.

HepG2 cells = test: Immortalized cell line toxicity (WST-1), HepG2; assay type: cell-based, human; details: HepG2 liver cell line, 24 h
Description: as §3

A549 cells = test: Immortalized cell line toxicity (WST-1), A549; assay type: cell-based, human; details: A549 lung carcinoma cell line, 24 h
Description: as §3

HKC cells = test: Immortalized cell line toxicity (WST-1), HKC; assay type: cell-based, human; details: HKC kidney cell line, 24 h
Description: as §3

[10] = Compound solubility in PBS; assay type: physicochemical; details: aqueous buffer
Description: Compound solubility in PBS. Compound solubility was measured in PBS. Briefly, serial dilutions of test compounds were prepared in DMSO at 100x the final concentration. Test compound solutions were diluted 100-fold into PBS in a 96-well plate and mixed. After 2 h, the presence of precipitate was detected by measuring absorbance at 540 nm.

S. aureus MW2 [11] = test: Time to kill assay; assay type: cell-based, Staphylococcus aureus; details: 4 × MIC, 4 h; bactericidal = 3-log10-CFU/mL reduction
Description: S. aureus MW2, a methicillin-resistant S. aureus (MRSA) isolate, was used to determine the bacteriostatic/bactericidal properties of test compounds, as previously described ([Rajamuthiah et al., 2015]). Assays were carried out as 2 biological replicates with n=3 for each in 24 well plates (BD Biosciences, Franklin Lakes, NJ, USA). Briefly, S. aureus MW2 cells were streaked on TSB agar from a frozen glycerol stock, and after overnight incubation, a single colony was inoculated on 2 mL of TSB and incubated at 37°C with agitation. The overnight culture of S. aureus MW2 was centrifuged at 4000 g for 5 min and then washed twice with PBS and collected through centrifuged at 4000 g for 5 min. The PBS was discarded and cells were suspended in TSB and aliquoted into a 24-well plate at a density of 10^8 cells/mL as a 1 mL volume. Test compounds were added such that the final concentration was 4 × MIC, and the cultures were incubated at 37°C with agitation. At designated time intervals, 5 μL aliquots from each test condition were serially diluted in TSB and plated onto TSA (BD Biosciences, Franklin Lakes, NJ, USA). CFUs were enumerated after overnight incubation at 35°C, and data were plotted using GraphPad Prism 9.0 (San Diego, CA, USA) to report the means and standard deviation of growth as measured by CFU/mL.

human erythrocytes = details: tested range 256 to 0.125 μg/mL
Description: The plate was incubated for 1h at 37°C. After incubation, the plate was centrifuged at 1000 g for 5 min. Then, 100 µL of supernatant was transferred to a fresh 96-well microtiter well plate and the OD was measured at 540 nm. The assay was conducted in triplicate and the mean and SD values were reported.

hERG channel [12] = target: T1, hERG channel; test: hERG measurement (QPatch HTX patch clamp)
Description: as §4

[13] = Compound solubility in DMSO; assay type: physicochemical; details: organic solvent or mixture, turbidity at 540 nm, read-out: concentration up to which the compound remained soluble in DMSO
Description: To test compound solubility, stock solutions were made in triplicate at 50 mg/mL in DMSO. Two-fold serial dilutions of the test compounds were prepared at 50 μL volume in a 96-well assay plate and were kept in the incubator for 1 h. After incubation, the absorbance was measured at 540 nm using a Vmax microplate reader (Molecular Devices, Sunnyvale, CA, USA.) to detect turbidity.

S. aureus TrxR, sequence (P66011 whole entry): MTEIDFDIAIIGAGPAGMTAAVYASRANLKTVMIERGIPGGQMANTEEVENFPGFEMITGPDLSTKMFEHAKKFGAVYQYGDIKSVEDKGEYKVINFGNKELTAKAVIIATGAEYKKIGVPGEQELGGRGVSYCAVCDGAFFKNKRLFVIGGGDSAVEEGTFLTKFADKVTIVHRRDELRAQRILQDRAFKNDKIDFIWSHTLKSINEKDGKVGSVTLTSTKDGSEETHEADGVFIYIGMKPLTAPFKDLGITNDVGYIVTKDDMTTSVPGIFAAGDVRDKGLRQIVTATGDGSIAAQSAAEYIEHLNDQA

Compound: CC(=O)OC[C@H]1O[C@@H]([S-])[C@H](OC(C)=O)[C@@H](OC(C)=O)[C@@H]1OC(C)=O.CCP(CC)CC.[Au+] [Auranofin]
- TrxR enzymatic inhibitory activity (in words) (S. aureus TrxR; DTNB to TNB conversion): Measurable activity reduction
- OD420 in TrxR enzymatic assay (S. aureus TrxR; subscreen, after a 30 min incubation period, DMSO 0.483 ± 0.121): 0.295 ± 0.012
- concentration that significantly reduced mature biofilm (mature S. aureus biofilm): 0.125 µg/mL
- patients with proteinuria [1]: 5%
- concentration that inhibited biofilm formation (P<0.01) [2]: 0.125 µg/mL
- LD50 [3]: approximately 8 μg/mL
- MIC (E. faecium ATCC E007): 0.5 µg/mL
- MIC (P. aeruginosa PA14): >32 µg/mL
- MIC (S. aureus MW2 [4]): 0.25 µg/mL
- impact on free thiols (in words) [5]: a reduction was observed
- LD50 as multiple of the MIC [6]: 6 X MIC
- MIC (K. pneumoniae ATCC 77326): >32 µg/mL
- MIC (H. pylori 49503): 0.25 µg/mL
- IC50 (hERG channel [7]): 9.68 µM
- MIC (Enterobacter (EAE 2625)): >32 µg/mL
- MIC (A. baumannii 17978): 32 µg/mL
- log CFU reduction in combination with diamide (S. aureus MW2 [8]): 2.1 log CFU

Compound: CC(C)(C)c1ccc([S-])cc1.CCP(CC)CC.[Au+] [AU1]
- selectivity ratio at 24 h [9]: 16 to 32
- IC50 (S. aureus TrxR): 0.5 µM
- LD50 (HepG2 cells): approximately 3 μg/mL
- LD50 (A549 cells): approximately 4 μg/mL
- LD50 [3]: approximately 3 μg/mL
- LD50 (HKC cells): < 2 µg/mL
- solubility at 2 h ([10]; PBS, 2 Hour, highest concentration with no detectable precipitate, read-out: Solubility Limit): 3.13 µM
- solubility at 2 h ([10]; pbs, read-out: Solubility in PBS converted to mass concentration): 1.49 µg/mL
- LD50 [6]: 1.5 µg/mL
- LD50 as multiple of the MIC [6]: 12 X MIC
- bactericidal versus bacteriostatic nature (time-to-kill kinetics) (S. aureus MW2 [11]): bacteriostatic
- hemolysis (in words) (human erythrocytes): did not cause hemolysis within the tested range
- IC50 (hERG channel [12]): > 10 µM
- solubility at 1 h [13]: ≥ 50 µg/mL
